Test system: TNF-α
Experiment: Lipopolysaccharide-activated THP1 cell TNF production assay (LPS induced TNF release)
Assay type: cell-based
Conditions: Homo sapiens, THP-1; THP1 cells, bacterial LPS, secreted TNF-α after 3 h at 37° C.
Method: Lipopolysaccharide-Activated THP1 Cell TNF Production Assay
THP1 cells are resuspended in fresh THP1 media (RPMI 1640, 10% heat-inactivated FBS, 1XPGS, 1XNEAA, plus 30 μM βME) at a concentration of 1E6/mL. One hundred microliters of cells per well are plated in a polystyrene 96-well tissue culture. One microgram per mL of bacterial LPS is prepared in THP1 media and is transferred to the wells. Test compounds are dissolved in 100% DMSO and are serially diluted 3 fold in a polypropylene 96-well microtiter plate (drug plate). HI control and LO control wells contain only DMSO. One microliter of test compound from the drug plate followed by 10 μL of LPS are transferred to the cell plate. The treated cells are induced to synthesize and secrete TNF-α at 37° C. for 3 h. Forty microliters of conditioned media are transferred to a 96-well polypropylene plate containing 110 μL of ECL buffer (50 mM Tris-HCl pH 8.0, 100 mM NaCl, 0.05% Tween 20, 0.05% NaN3 and 1% FBS) supplemented with 0.44 nM MAB610 monoclonal Ab (R&D Systems), 0.34 nM ruthenylated AF210NA polyclonal Ab (R&D Systems) and 44 μg/mL sheep anti-mouse M280 Dynabeads (Dynal). After a 2 h incubation at room temperature with shaking, the reaction is read on the ECL M8 Instrument (IGEN Inc.). A low voltage is applied to the ruthenylated TNF-α immune complexes, which in the presence of TPA (the active component in Origlo), results in a cyclical redox reaction generating light at […]. The amount of secreted TNF-α: in the presence of compound compared with that in the presence of DMSO vehicle alone (HI control) is calculated using the formula:% control (POC)=(cpd−average LO)/(average HI−average LO)*100. Data (consisting of POC and inhibitor concentration in μM) is fitted to a 4-parameter equation (y=A+((B−A)/(1+((x/C)ˆD))), where A is the minimum y (POC) value, B is the maximum y (POC), C is the x (cpd concentration) at the point of inflection and D is the slope factor) using a Levenburg-Marquardt non-linear regression algorithm.

**Q.** For C[C@@H](Cc1cccc(S(N)(=O)=O)c1)Nc1nccc(N(C)c2nc(-c3ccccc3)cc3ncnn23)n1, which IC50 is on record?
**A.** ≤ 20 µM

**Q.** With C[C@@H](Cc1cccc(S(=O)(=O)N(C)CCN(C)C)c1)Nc1nccc(N(C)c2nc(-c3ccccc3)cc3ncnn23)n1 as the compound, how does the IC50 read?
**A.** ≤ 20 µM

**Q.** Which IC50 does the source give for Cc1cc(N(C)c2nc(-c3ccccc3)cc3ncnn23)nc(N[C@@H](C)Cc2cccc(CN)c2)n1 here?
**A.** ≤ 20 µM

**Q.** CN(c1ccnc(NC2CCN(C(=O)OC(C)(C)C)CC2)n1)c1nc(-c2ccccc2)cc2ncnn12 [4-{4-[methyl-(7-phenyl-[1,2,4]triazolo[1,5-c]pyrimidin-5-yl)-amino]-pyrimidin-2-ylamino}-piperidine-1-carboxylic acid tert-butyl ester] was tested. Which IC50 did it give?
**A.** ≤ 20 µM

**Q.** Which IC50 does the source give for C[C@@H](Nc1nccc(Nc2nc(-c3ccccc3)cc3ncnn23)n1)c1ccccc1 [(R)-N^2-(1-Phenyl-ethyl)-N^4-(7-phenyl-[1,2,4]triazolo[1,5-c]pyrimidine-5-yl)-pyrimidine-2,4-diamine] here?
**A.** ≤ 20 µM

**Q.** With C[C@@H](Cc1cccc(CN)c1)Nc1nccc(N(C)c2nc(-c3ccccc3)cc3ncnn23)n1 [(S)-N^2-[2-(3-aminomethyl-phenyl)-1-methyl-ethyl]-N^4-methyl-N^4-(7-phenyl-[1,2,4]triazolo[1,5-c]pyrimidin-5-yl)-pyrimidine-2,4-diamine] as the compound, how does the IC50 read?
**A.** ≤ 20 µM

**Q.** How did the IC50 turn out when C[C@@H](Cc1cccc(CO)c1)Nc1nccc(N(C)c2nc(-c3ccccc3)cc3ncnn23)n1 [(S)-[3-(2-{4-[methyl-(7-phenyl-[1,2,4]triazolo[1,5-c]pyrimidine-5-yl)-amino]-pyrimidin-2-ylamino}-propyl)-phenyl]-methanol] was run?
**A.** ≤ 20 µM

**Q.** How did the IC50 turn out when c1ccc(CCNc2nccc(Nc3nc(-c4ccccc4)cc4ncnn34)n2)cc1 [Example 4, N^2-phenethyl-N^4-(7-phenyl-[1,2,4]triazolo[1,5-c]pyrimidine-5-yl)-pyrimidine-2,4-diamine] was run?
**A.** ≤ 20 µM

**Q.** Which IC50 does the source give for C[C@H](Nc1nccc(Nc2nc(-c3ccccc3)cc3ncnn23)n1)c1ccccc1 [Example 7, (S)—N^2-(1-phenyl-ethyl)-N^4-(7-phenyl-[1,2,4]triazolo[1,5-c]pyrimidine-5-yl)-pyrimidine-2,4-diamine] here?
**A.** ≤ 20 µM

**Q.** With C[C@@H](Cc1ccccc1)Nc1nccc(N(C)c2nc(-c3ccccc3)cc3ncnn23)n1 [Example 10, N^4-methyl-N^2-(S)-(1-methyl-2-phenyl-ethyl)-N^4-(7-phenyl-[1,2,4]triazolo[1,5-c]pyrimidine-5-yl)-pyrimidine-2,4-diamine] as the compound, how does the IC50 read?
**A.** ≤ 20 µM

**Q.** How did the IC50 turn out when Cc1cc(N(C)c2nc(-c3ccccc3)cc3ncnn23)nc(N[C@@H](C)Cc2cccc([C@@H](C)N)c2)n1 [Example 35] was run?
**A.** ≤ 20 µM

**Q.** CC(Cc1cccc(CN)c1)Nc1nccc(N(C)c2nc(-c3ccccc3)cc3nccn23)n1 (stereo not drawn) [N2-[2-(3-Aminomethyl-phenyl)-1-methyl-ethyl]-N4-methyl-N4-(7-phenyl-imidazo[1,2-c]pyrimidin-5-yl)-pyrimidine-2,4-diamine] was tested. Which IC50 did it give?
**A.** ≤ 20 µM

**Q.** How did the IC50 turn out when CC(Cc1ccccc1)Nc1nccc(Nc2nc(-c3ccccc3)cc3ncnn23)n1 (stereo not drawn) [N^2-(1-methyl-2-phenyl-ethyl)-N^4-(7-phenyl-[1,2,4]triazolo[1,5-c]pyrimidine-5-yl)-pyrimidine-2,4-diamine] was run?
**A.** ≤ 20 µM

**Q.** Which IC50 does the source give for CC(Cc1cccc(CN)c1)Nc1nccc(N(C)c2cc(-c3ccccc3)cc3ncnn23)n1 (stereo not drawn) [N^2-[2-(3-Aminomethyl-phenyl)-1-methyl-ethyl]-N^4-methyl-N^4-(7-phenyl-[1,2,4]triazolo[1,5-a]pyridin-5-yl)-pyrimidine-2,4-diamine] here?
**A.** ≤ 20 µM

**Q.** With CC(Cc1cccc(CN)c1)Nc1nccc(N(C)c2nc(-c3ccccc3)cc3ncnn23)n1 (stereo not drawn) [N^2-[2-(3-aminomethyl-phenyl)-1-methyl-ethyl]-N^4-methyl-N^4-(7phenyl-[1,2,4]triazolo[1,5-c]pyrimidin-5-yl)-pyrimidine-2,4-diamine] as the compound, how does the IC50 read?
**A.** ≤ 20 µM

**Q.** CC(Cc1cccc(C(C)N)c1)Nc1nccc(N(C)c2nc(-c3ccccc3)cc3ncnn23)n1 (stereo not drawn) [N^2-{2-[3-(1-amino-ethyl)-phenyl]-1-methyl-ethyl}-N^4-methyl-N^4-(7-phenyl-[1,2,4]triazolo[1,5-c]pyrimidine-5-yl)-pyrimidine-2,4-diamine] was tested. Which IC50 did it give?
**A.** ≤ 20 µM

**Q.** Which IC50 does the source give for CC(Cc1cccc(CO)c1)Nc1nccc(N(C)c2nc(-c3ccccc3)cc3nccn23)n1 (stereo not drawn) [[3-(2-{4-[Methyl-(7-phenyl-imidazo[1,2-c]pyrimidin-5-yl)-amino]-pyrimidin-2-ylamino}-propyl)-phenyl]-methanol] here?
**A.** ≤ 20 µM

**Q.** How did the IC50 turn out when CC(Cc1cccc(CO)c1)Nc1nccc(N(C)c2nc(-c3ccccc3)cc3ncnn23)n1 (stereo not drawn) [[3-(2-{4-[methyl-(7-phenyl-[1,2,4]triazolo[1,5-c]pyrimidine-5-yl)-amino]-pyrimidin-2-ylamino}-propyl)-phenyl]-methanol] was run?
**A.** ≤ 20 µM

Source: patent publication US20050288502A1, “Substituted heterocyclic compounds and methods of use” (priority 2004, published 2005)
